Data from US20060003965A1, “N-acetyl-d-glucosamine (nag) supplemented food products and beverages” (priority 2002, published 2006).

Tests used:
[1] = pH of supplemented tea before and after heating; type: physicochemical; settings: tea with 5.7 g per quart; for Initial pH: before heating
Description: Tea made from Lipton® instant tea mix was used as the basis for incorporation of samples. To prepare the tea, the following recipe was used: 2.69 g instant tea, 5.7 g GLCN or NAG (where applicable) then add water to one quart. Tea was prepared for sensory testing as follows:
Batch 2. Tea+glucosamine (pH 5-6) [GLCN from fungal biomass, see batch 2 Example 1]
Batch 3. Tea+NAG (pH 5-6) (N-Acetyl-D-glucosamine, Catalog # A-102-2, Ferro Pfanstiehl, Waukegan, Ill.)
Batch 4. Tea+glucosamine (pH 5-6) heated to 71° C. for 20 minutes
Batch 5. Tea+glucosamine heated (pH 5-6) to 90° C. for 20 seconds, flash cooled in ice water bath
Batch 6. Tea+glucosamine (pH 5-6) boiled on stove for 5 minutes, flash cooled in ice water bath
Batch 7. Tea+NAG (pH 5-6) heated to 71° C. for 20 minutes
Batch 8. Tea+NAG (pH 5-6) heated to 90° C. for 20 seconds, flash cooled in ice water bath
Batch 9. Tea+NAG (pH 5-6) boiled on stove for 5 minutes, flash cooled in ice water bath

[2] = Stability in simulated gastric fluid (SGF); type: in vitro ADME; settings: 1 g in SGF with pepsin, pH about 1.2, 37° C., sampled at 0, 5, 15 and 60 minutes
Description: To test the availability of NAG in the stomach, a simulated stomach environment was constructed, and a known concentration of NAG was added to simulated gastric fluid (SGF) and maintained at conditions simulating the stomach. If NAG is degraded or derivatized in the stomach, the NAG concentration will decrease. If the concentration of NAG remains the same, it is likely that the NAG is available to the body.
SGF was prepared based on a 1995 United States Pharmacopoeia (USP) monograph. An artificial stomach environment was simulated according to generally accepted practice (see Consumers Union website, 101 Truman Ave., Yonkers, N.Y. 10703-1057). To prepare simulated gastric fluid, 2.0 g of NaCl and 3.2 g of pepsin were dissolved in 7.0 mL of hydrochloric acid (concentrated) and sufficient water to make a 1000 mL solution.
NAG samples were prepared as follows. […]
Before introduction of samples into the SGF, a sample of the SGF was analyzed as a blank, to determine the baseline. Upon addition of the NAG to the SGF, a sample was immediately analyzed to determine the concentration of NAG at time zero. After introduction of NAG into the SGF, samples were pulled and analyzed at 5 minutes, 15 minutes, and 60 minutes to provide a profile of NAG concentration in the simulated stomach, and analyzed for the concentration of NAG.

[3] = NAG recovery following heating, acid extraction method, HPLC; type: physicochemical; settings: all foods and beverages of Table 14
Description: Food samples were homogenized prior to analysis. Where possible, samples were frozen or dried and ground. Baked goods were crumbled and mixed to produce a homogeneous material. Suitable blanks (samples with no added NAG) of each food type were analyzed to assess interferences. Mass changes between unheated ingredient mixtures and baked final products were tracked to permit accurate recovery calculations.
A food or beverage sample as described in the preceding examples containing 5 to 20 mg of N-acetylglucosamine (NAG) was dispersed in 25 g of 0.1 N HCl in a 50-mL polypropylene centrifuge tube and capped tightly. The sample was mixed for 30 seconds using a vortex mixer, then placed in a water bath at 37° C. The sample was removed from the water bath at 15-minute intervals and mixed for 30 seconds on a vortex mixer and then returned to the water bath. This cycle was repeated until the sample had been in the water bath for one hour. After heating, the sample was mixed for 30 seconds on a vortex mixer, then centrifuged for 10 minutes to separate the liquid and solid phases. Fats, oils or lipids in the sample formed a third layer at the top of the tube. […]
NAG recovery was determined using high performance liquid chromatography (HPLC) using a combination of refractive index and UV (195 nm) detection. […]

[4] = heated to 71° C. for 20 minutes
[5] = heated to 90° C. for 20 seconds

Cl.N[C@H]1C(O)O[C@H](CO)[C@@H](O)[C@@H]1O (stereo partly shown) [Fungal GLCN, glucosamine hydrochloride, reference compound]
Initial pH [1]: 5.09 | pH after heating ([1]; boiled 5 minutes): 4.87 | pH after heating [1, 4]: 5.13 | pH after heating [1, 5]: 5.00

CC(=O)N[C@H]1C(O)O[C@H](CO)[C@@H](O)[C@@H]1O (stereo partly drawn) [NAG, N-Acetyl-D-glucosamine]
Initial pH [1]: 5.46 | pH after heating ([1]; boiled 5 minutes): 5.22 | pH after heating [1, 4]: 5.40 | pH after heating [1, 5]: 5.31 | Loss of NAG in simulated gastric fluid [2]: no significant loss of NAG | amount of NAG recovered following heating, range over Table 14 samples [3]: 77%-100%
